Measurements reported in patent publication US20090105172A1, “Stabilized Aptamers to PSMA and Their Use as Prostate Cancer Therapeutics” (priority 2005, published 2009).

Tested on: LNCaP cells (PSMA+)
Experiment: LNCaP FACS binding assay with fluorescein-labeled aptamers
Format: cell-based
Conditions: relative to parent A9
Protocol: To prepare aptamers for the FACS assay, PSMA aptamers were serially diluted (0-1 uM) in FACS buffer (1×DPBS w/Ca^++/Mg^++ (Gibco, Carlsbad, Calif.) supplemented with 10 mg/mL salmon sperm DNA & 0.2% Na Azide), in a V-bottom 96 well plate, at the concentrations to be tested. LNCaP and PC-3 cells (ATCC, Manassas, Va.) were harvested with trypsin, and 200,000 cells/well were counted, washed once with 1×DPBS (with Ca^++ and Mg^+) and resuspended in 200 μl of FACS Buffer. The 200 μl of cells in FACS buffer were added to individual wells of a new 96 well plate, pelleted by centrifugation (1300 rpm for 5 minutes), and resuspended in 100 μl of the appropriate concentration of diluted aptamer. FACS buffer, a-PSMA antibody (3C6) (Northwest Biotherapeutics, Bothell, Wash., Cat #: 60-5002) and an irrelevant fluorescein isothiocyanate (“FITC”) mouse IgG1 isotype control antibody (BD Pharmingen, San Diego, Calif., Cat#: 554679) were used as controls. The wells of aptamer/cell mixture were incubated at room temperature for 20-30 minutes.
After incubation, 180 μl of FACS buffer (plus 10 mg/mL ssDNA, and 0.2% Na Azide) was added to each well to quench the reaction and cells were pelleted by centrifugation.
Anti-fluorescein/Oregon Green®, rabbit IgG fraction, Alexa Fluor® 488 conjugate (Molecular Probes, Eugene, Oreg., Cat#: A11090) was diluted 1:100 in FACS buffer (100 μl/well) as the secondary antibody for the aptamer-FITC conjugates and FITC-mouse IgG isotype control. FITC Rat anti-mouse IgG1 (A85-1) (BD Pharmingen, San Diego, Calif., Cat#: 553443) was diluted in 1:100 in FACS Buffer as the secondary for the α-PSMA antibody. After centrifugation, the cell pellets were resuspended in 100 μl of the appropriate diluted secondary antibody, and incubated 10 minutes at room temperature. After incubation, 180 μl of FACS buffer was added to each well to quench the reaction, and cells were pelleted by centrifugation.
A tertiary antibody which recognizes the Alexa Fluor® 488 goat anti-rabbit IgG was prepared to further amplify the Alexa Fluor signal. Alexa Fluor® 488 goat anti-rabbit IgG (H+ L) (Molecular Probes, Eugene, Oreg., Cat#: A11034) was diluted 1:100 in FACS buffer, and the pelleted cells were resupsended in 100 μl of the tertiary antibody and incubated for 10 minutes at room temperature. […]
Cell samples were analyzed on a FACS Scan machine (Becton Dickinson, San Jose, Calif.) under the following parameters: FSC/SSC, FL-1/FSC, FL-3/FSC. The unstained and/or isotype controls were used to establish gating parameters, and the data was analyzed using Cell Quest Pro software version 5.1.1 (Becton Dickinson Immunocytometry Systems, San Jose, Calif.).

In the case of “GGAGGAfCfCGAAAAAGAfCfCfUGAfCfUfUfCfUAfUAfCfUAAGfUfCfUAfCGfUfUfCfCfUfCfCA (GGAGGACCGAAAAAGACCUGACUUCUAUACUAAGUCUACGUUCCUCCA; 2'-fluoro at 7, 8, 17, 18, 19, 22, 23, 24, 25, 26, 28, 30, 31, 35, 36, 37, 39, 41, 42, 43, 44, 45, 46, 47, other sugars and backbone not given here) [ARC591, 48-nt minimer of A9]”, the “functional activity in the LNCaP FACS assay” value is reported as “retained full functional activity”.
